According to a melting point compilation (Tetko et al.; mined from patent text by program, amines drawn as free bases though some values may be those of a salt):

SMILES	melting point
CCOCCOc1ccc(-c2nc(C(=O)Nc3nccs3)c(-c3ccc(Cl)cc3)[nH]2)cc1	115 °C
COCCOc1ccc(-c2nc(C(=O)Nc3nccs3)c(-c3ccc(Cl)cc3)[nH]2)cc1	147 to 148 °C
CC(=O)c1cc2c(cc1F)OC(C)(C)[C@@H](O)[C@@H]2NC(=O)c1ccc(F)cc1 (relative stereo)	200 to 203 °C
c1ccc(-c2nc(CCCCCCc3nnn[nH]3)oc2-c2ccccc2)cc1	132 °C
CCOC(=O)/C=C/c1ccc(C=Cc2nc(-c3ccc4ccccc4c3)oc2C)cc1	186 to 187 °C
O=C1N(Cc2nc3cc(F)ccc3[nH]2)c2ccccc2C12COc1cc3c(cc12)OCO3 (stereo unspecified)	138 to 142 °C
N#Cc1cn(-c2ccc(Cl)cc2)c(=O)[nH]c1=O	236 to 239 °C
CC1CCCCN1c1ccc([N+](=O)[O-])cc1C(=O)c1ccc(Cl)cc1 (stereo unspecified)	142 °C
CN(C1=NC(=O)C(=O)S1)c1ccc(-c2ncn(-c3ccc(OC(F)(F)F)cc3)n2)cc1	114 to 118 °C
CC(C)(C)OC(=O)N1CCN(C(=O)SCc2ccc(OCc3ccc(F)cc3)cc2)CC1	123 to 124 °C
Nc1ncccc1-c1nc2cc(C(F)(F)F)cnc2n1-c1ccc(CNC(=O)c2cccc(F)c2)cc1	230 to 231 °C
Cn1ccc(=O)c(O)c1C(O)c1ccccc1 (stereo unspecified)	210 to 213 °C
CN1CCN(C(=S)Nc2ccc3nc(C(C)(C)C)sc3c2)CC1	176 to 177 °C
O=C(O)CC(c1ccccc1)N1CC(NC(=O)C(=NO)c2ccccc2)C1=O (stereo unspecified)	157 to 158 °C
CC(C)c1ccc(N2Cc3ccc([N+](=O)[O-])cc3C2=O)cc1	225 to 227 °C
Cc1ccc(S(=O)(=O)N(Cc2cc(C(C)(C)C)c(O)c(C(C)(C)C)c2)c2ccc(Cl)nc2)cc1	152 to 153 °C
CC(C)(C)OC(=O)Nc1ccc(C#Cc2ccccn2)cc1N	178 °C
C[C@@H](O[Si](C)(C)C(C)(C)C)[C@@H]1C(=O)N[C@@H]1S(=O)(=O)c1ccc([N+](=O)[O-])cc1[N+](=O)[O-]	148 to 149 °C
CS(=O)(=O)c1ccc(-c2cc(C(F)F)nn2-c2ccc(S(N)(=O)=O)cc2)cc1	209 to 210 °C
O=c1oc2c(c(O)c1C(c1ccccc1)C1CC1)CCCCC2Cc1ccccc1 (stereo unspecified)	178 to 182 °C
Nc1ccc(C(=O)c2ccccc2)cc1CC(=O)O	143 to 145 °C
Nc1c(CC(=O)O)cccc1S(=O)(=O)c1ccccc1	218 to 220 °C
CC(=O)Nc1ccc(N2CCC(O)CC2)cc1	191 °C
C#CCOc1cc(F)cc(F)c1-n1c(=O)cc(C(F)(F)F)n(C)c1=O	159 to 162 °C

SMILES	melting point
Nc1c(SC(F)(F)F)cnn1-c1c(Cl)cc(C(F)(F)F)cc1Cl	113 to 117 °C
COc1cncc(OC)c1C(=O)Nc1ccc(C[C@H](NC(=O)Nc2ccccc2S(=O)(=O)c2ccccc2)C(=O)O)cc1	196 °C
Cn1cc(-c2cc3cccnc3[nH]2)c2cc(O)ccc21	199 to 200 °C
O=C(O)CN(C(=O)CCc1nc2c(F)c(F)cc(F)c2s1)c1ccccc1	121 to 124 °C
Cc1csc2ncc(C(C)(O)CCc3ccccc3)n12 (stereo unspecified)	131 to 133 °C
O=[N+]([O-])c1ccc(CCN2CCN(c3ccc([N+](=O)[O-])cc3)CC2)cc1	143 to 145 °C
O=C(NCCCn1ccnc1)Nc1cccc(C(F)(F)F)c1	105 to 108 °C
COc1ccccc1N(CN1C(=O)CSC1=O)C(=O)CCl	188 to 191 °C
CCCCCS(=O)(=O)NC(=O)OCc1ccc(OCCCC)cc1Oc1ncc(C(F)(F)F)cc1Cl	124 to 126 °C
O=C(Nc1ccccc1)n1nc(-c2ccccc2)cc1Sc1ccccc1	138 to 140 °C
Cn1nc2cccc(O)c2c1S(N)(=O)=O	180 to 181 °C
Nc1ccc(CCC(=O)NC23CC4CC(CC(C4)C2)C3)cc1N	151 to 152 °C
CCCCC1(C2CCCC2)Cc2cc(OC)c(Cl)c(Cl)c2C1=O (stereo unspecified)	122 to 123 °C
Cc1nc2cc(OCc3ccccc3)c(OCc3ccccc3)cc2nc1C(=O)OCc1ccccc1	137 to 139 °C
O=C(Oc1ccccc1O)c1cc(Br)c(Cl)s1	145 to 147 °C
C[Si](C)(C)N1C(=O)c2ccccc2S1(=O)=O	90 to 92 °C
CCCc1nc2c(N)nc(C)c(C)c2n1CCCC(=O)N1CCOCC1	164 to 165 °C
C=CCn1c(-c2cccc(Cl)c2[N+](=O)[O-])nc2ccccc21	148 to 150 °C
O=c1[nH]nc(CN2CC[C@H](OCc3cc(C(F)(F)F)cc(C(F)(F)F)c3)[C@H](c3ccccc3)C2)[nH]1 (relative stereo)	89 to 91 °C
CCNc1ccc(Cl)nc1	65 to 66 °C
O=c1c2cccnc2sc(=Nc2ccccc2)n1Cc1ccccc1	105 to 106 °C
COc1ccc(CN(C)CCCOc2ccc(NC(=O)c3cccc4c(=O)c5cccc(F)c5[nH]c34)cc2)cc1OC	150 °C
CCCCC(NC(=O)c1ccccc1)C(=O)CN(C)C(=O)N1CCCC1C(=O)O (stereo unspecified)	40 to 80 °C
CC(C)(C)COc1ccc(NC(=O)c2cccn2-c2ccc(F)cc2)cc1C#N	181 to 182 °C

SMILES	melting point
CC(=O)OC1CCC2C3CCC4=CC(=O)C=C(C)C4(C)C3CCC12C (stereo unspecified)	144 °C
CCOc1cccc(C(=O)Nc2ccc(C(=O)N3CCCc4ccccc43)cc2)c1	170 to 172 °C
COc1cc(C=CCO)ccc1OCc1ccccc1	81 to 82 °C
CCc1nc2c(N)nc3ccccc3c2n1CC#Cc1ccc([N+](=O)[O-])cc1	190 to 206 °C
O=C(Nc1ccc2oc(=O)[nH]c2c1)C(=O)N1CCC(Cc2ccc(F)cc2)CC1	226 to 231 °C
Cc1cc2nc(C)c(=O)n(C)c2cc1C	164 to 166 °C
C=C(c1ccc(NC(=O)OC(C)(C)C)c(C)c1)C(F)(F)C(F)(F)C(F)(F)F	50 to 53.5 °C
CCCCCCCCOC(=O)CCc1cc(C(C)(C)C)c2oc(-c3ccc(-c4nc5cc(CCC(=O)OCCCCCCCC)cc(C(C)(C)C)c5o4)s3)nc2c1	68 to 70 °C
N#CC=Cc1ccc2c(c1)-c1c3c(c4c([nH]c5ccccc54)c1C2)C(=O)NC3	> 330 °C
O=Cc1c(-c2ccccc2)nn2ccccc12	221 to 222 °C
Cc1cc2ncnn2nc1OCC(C)(C)CS(N)(=O)=O	216 to 218 °C
CC1C(=O)CCS1(=O)=O (stereo unspecified)	83 to 85 °C
COc1ccc(C(C)N(C)CCCOc2ccc(S(=O)(=O)C3=C(C(C)C)N(C)CC3)cc2)cc1OC (stereo unspecified)	100 to 102 °C
COc1cccc(C(=O)Nc2ccc3c(c2)CCCC3=O)c1	142 to 143 °C
Cc1c(C)c2c(c(C)c1OCc1ccccc1)CC(CCN1C(=O)c3ccccc3C1=O)O2 (stereo unspecified)	108 to 110 °C
COc1cc2c(cc1Cl)CC(=O)NN=C2c1ccc([N+](=O)[O-])cc1	258 to 262 °C
CC(C)(C)c1ccc2oc(-c3ccc(O)cc3)cc2c1	172 to 174 °C
O=Cc1c(Cl)ccc(C2OCCO2)c1Cl	96 to 98 °C
C=C1N(c2ccc(Cl)cc2)C(=O)OC12CCN(C(=O)N1CCN(CCO)CC1)CC2	185 to 186 °C
O=C(Oc1ccc(F)cc1)c1cccc(F)c1	63.5 to 66 °C
CC12CCC(=O)C([N+](=O)[O-])=C1CCC1C2CCC2(C)C(C(O)CO)CCC12 (stereo unspecified)	183 to 185 °C
Cc1c(C)c(-c2cccc(CO)c2)c(C)c(C)c1OCCCS(C)(=O)=O	132 to 134 °C
CCOCCOc1ccc(CCNC(=O)c2ccccc2CC(=O)OCC)cc1	108 °C
CN1C(=O)Cc2cc(C(=O)[C@H]3CC[C@H]3C(=O)O)ccc21 (relative stereo)	210 to 212 °C

SMILES	melting point
Nc1c2c(nc3cccc(Cl)c13)C(=O)CCC2	205 °C
O=C(Nc1nc(C(F)(F)F)co1)C1c2ccccc2Oc2ccccc21	222 °C
CN(C)c1ccc(N=Nc2ccccc2C(=O)NCCN)cc1	119 to 124 °C
COc1ccc(C2CCN(c3c(C)c(C)c4c(c3C)[C@@H](c3ccc(C)cc3)C(C)(C)O4)CC2)cc1	183 to 185 °C
Nc1nc2ncn(O)c2c(=O)[nH]1	> 300 °C
O=C(OC1c2ccccc2C(=O)N1c1ccc2ccc(Cl)nc2n1)N1CCN(C(=O)C2CCCCC2)CC1 (stereo unspecified)	240 °C
CCCOc1ccc(CCC(=O)N2CCOCC2)cc1-c1nc2c(c(C)nn2CCC)c(=O)[nH]1	132 to 133 °C
Fc1ccc(-c2cc(Cl)ncn2)c(F)c1	65 to 69 °C
Cc1nc(-n2ccc(OCCC3CC3)cc2=O)sc1C(=O)NCc1ccc(F)cc1	172 to 174 °C
CCOC(=O)c1cccc(-c2cc3c(Nc4cccc(Cl)c4)ncnc3[nH]2)c1	> 300 °C
O=C1NCCN1c1ccc(S(=O)(=O)Nc2ccc(OC(F)F)cc2)cc1	198 to 200 °C
CS(=O)(=O)c1ccc(-n2nc(C(F)(F)F)cc2-c2ccc(-c3cscn3)c(F)c2)cc1	176 to 178 °C
COc1ccc(C2(C#Cc3cccc(N)c3)CCCC(=O)C2)cc1OC1CCCC1 (stereo unspecified)	100 to 102 °C
CC(C)(C)OC(=O)N1CCN(CCO[Si](C)(C)C(C)(C)C)C1=O	35.5 to 45.5 °C
O=c1cc(SCc2ccccc2)cco1	105 to 106 °C
N#Cc1cnc2cc(O)ccc2c1Nc1ccc(Cl)cc1F	295 to 305 °C
CN(C)Cc1c[nH]c2c(C(=O)c3ccccc3)cccc12	111 to 114 °C
CCOC(=O)c1cn(C[C@@H]2CN(c3ccc(N4CCC5(CC4)OCCO5)c(F)c3)C(=O)O2)nn1	168 to 170 °C
COC(=O)[C@@H](Cc1ccccc1)Nc1cc(-c2ccc(OCc3ccccc3)cc2)ncn1	150 °C
O=C(O)C1CC(F)(F)CC1C(=O)O (stereo unspecified)	128 °C
Cc1ccnc2c1C(=O)CC(c1nccs1)C2 (stereo unspecified)	88 to 89 °C
Cc1c(C(F)(F)F)nn(C(C)C)c1O	150 to 153 °C
CCOC(=O)c1c2ccc(CC(=O)NOCCN3CCCCC3)ccc-2c(C(=O)OCC)c1N	163 to 165 °C
COc1ccc(C)cc1-c1ccc(S(=O)(=O)N2c3ccccc3CC2C(=O)NCc2ccc(C(=O)O)cc2)cc1 (stereo unspecified)	153 to 165 °C
